Assays:
[1] = test system: HEK-293T cells; assay: Cell viability assay in HEK-293T cells; assay type: cell-based; details: human normal HEK-293T cells
[2] = molecular target: AKT1 (Homo sapiens, UniProt P31749); assay: Kinase activity assay using AKT1 as enzyme; assay type: biochemical; details: duplicate, means ± SEM
Description: (§1) With these coumarins in hand, we performed kinase assay using MARK4 catalytic domain as enzyme to test the MARK4 inhibitory activity of these samples. […] To characterize the selectivity of compound 50, we performed kinase activity assay by using PDK1, AKT1, Src, and MARK4 as enzyme.
(§2) The kinase activity of MARK4 was measured via ADP-Glo™ kinase assay kit (Promega, USA) under manufacturer's instruction. The recombinant MARK4 catalytic domain was used as kinase. MARK4 (5 nM) activity was tested in a reaction (10 μL) containing 25 mM Tris (pH 7.6), 10 mM MgCl2, 150 mM NaCl, 1 mM EDTA, 1 mM DTT, 100 μM ATP, 5 μM MAP4 and varied concentrations of samples for 30 min. The reaction progress was monitored on Thermo Scientific Varioskan Flash Multimode Reader. Each data point was collected in duplicate and kinetic parameters were obtained using GraphPad Prism v6.0 software.

[3] = test system: HepG2 cells; assay: Cell viability assay (MTT) in HepG2 cells; assay type: cell-based
Description: (§3) HepG2 and SMMC-7721 cells were cultured in DMEM medium (Gibco) supplemented with 10% FBS (Gibco, USA). For transient transfection, cells were transfected with DNA by Lipofectamine 2000 (Thermo fisher, USA).
(§4) HCC cells (100 μL/each well, 20,000 cells/mL) were seeded in a 96-well culture plate and allowed to grow for 24 h in DMEM medium supplemented with 10% FBS and 1% penicillin/streptomycin sulfate. The cells were then treated with drugs or vehicle control and incubated in a 5% CO2 incubator for indicated time. At the end of incubation, 10 μL of MTT stock solution (5 mg/mL) was added into each well. The plate was continued to be incubated at 37°C for 4 h before the medium was removed. Then, DMSO (100 μL) was added into each well, followed by thorough shaking. The absorbance of the formazan product was measured at 570 nm on Thermo Scientific Varioskan Flash Multimode Reader. The IC50 value was obtained by fitting dose-response data to a three parametric non-linear regression model using GraphPad Prism 6.0 software.

[4] = test system: MAP4 phosphorylation; assay: Immunoblotting of MAP4 phosphorylation in HepG2 cell lysates; assay type: cell-based; details: HepG2 cells, 15 μM, 36 h
Description: HepG2 cells (2 × 10^5 cells/well) were plated in a 6-well plate and treated with compound 50 (15 μM) and vehicle at 37°C for 36 h. Cells were harvested, washed with physiological saline, and lysed with RIPA lysis buffer (Beyotime) including phosphatase and protease cocktail (Bimake). Protein was quantified by BCA protein assay kit (Bestbio) and subjected to SDS-PAGE. The separated proteins were transferred onto PVDF membranes and probed with antibody (anti-p-MAP4, anti-MAP4, and anti-actin) and peroxidase-conjugated secondary antibody, which was followed by enhanced chemiluminescence detection (Amersham Biosciences).

[5] = test system: SMMC-7721 cells; assay: Cell apoptosis assay (Annexin V-FITC/PI flow cytometry) in SMMC-7721 cells; assay type: cell-based; details: 15 μM, 36 h
Description: (§5) HCC cells (2 × 10^5 cells/well) were plated in a 6-well plate and treated with samples at 37°C for 36 h. After incubation, the cells were harvested and washed with ice-cold PBS. Annexin V-FITC-PI apoptosis detection kit (Abcam, USA) was used for a direct observation of viable, early apoptotic, and late apoptotic cells. Annexin V-FITC and propidium iodide were added according to the manufacturer's instructions, and the samples were incubated in the dark for 15 min. The apoptosis ratio was analyzed using BD FACSCalibur flow cytometry.

[6] = molecular target: T1, MARK4 catalytic domain (Homo sapiens, UniProt Q96L34); assay: Surface plasmon resonance (SPR) assay; assay type: binding; details: different sample concentrations, read-out: dissociation constant (Kd value) toward MARK4
T1 construct: The recombinant MARK4 catalytic domain was used as kinase; made in house; host or cells: E. coli BL21 (DE3)
Description: The interaction of small molecule with MARK4 was monitored by surface plasmon resonance (SPR) using a BIAcore T100 instrument (GE Healthcare, USA). In brief, recombinant MARK4 catalytic domain was immobilized on a carboxyl methylated dextran sensor chip (Sensor Chip CM3). A flow channel blocked by ethanolamine was used as control surface. The specific interaction of samples with the immobilized MARK4 catalytic domain was assessed. All samples were analyzed at a flow rate of 30 μL/min with 10 mM HEPES running buffer and contact time of 260 s. The surface was washed and regenerated with a 10 mM glycine-HCl buffer at pH 3.0 followed by a 30 min waiting time for dissolution after each experiment. The analyses were performed in BIAcore T100 evaluation software, version 2.0.2 (GE Healthcare, USA).

[7] = test system: HepG2 cells; assay: Cell apoptosis assay (Annexin V-FITC/PI flow cytometry) in HepG2 cells; assay type: cell-based
Description: as §5

[8] = molecular target: Src (Homo sapiens, UniProt P12931); assay: Kinase activity assay using Src as enzyme; assay type: biochemical; details: duplicate, means ± SEM
Description: as §1, §2

[9] = test system: HepG2 cells; assay: Colony formation assay of HepG2 cells; assay type: cell-based; details: compared with vehicle
[10] = test system: SMMC-7721 cells; assay: Cell viability assay (MTT) in SMMC-7721 cells; assay type: cell-based
Description: as §3, §4

[11] = molecular target: T2, PDK1 (Homo sapiens, UniProt O15530); assay: Kinase activity assay using PDK1 as enzyme; assay type: biochemical; details: duplicate, means ± SEM
T2 sequence (O15530 1-556): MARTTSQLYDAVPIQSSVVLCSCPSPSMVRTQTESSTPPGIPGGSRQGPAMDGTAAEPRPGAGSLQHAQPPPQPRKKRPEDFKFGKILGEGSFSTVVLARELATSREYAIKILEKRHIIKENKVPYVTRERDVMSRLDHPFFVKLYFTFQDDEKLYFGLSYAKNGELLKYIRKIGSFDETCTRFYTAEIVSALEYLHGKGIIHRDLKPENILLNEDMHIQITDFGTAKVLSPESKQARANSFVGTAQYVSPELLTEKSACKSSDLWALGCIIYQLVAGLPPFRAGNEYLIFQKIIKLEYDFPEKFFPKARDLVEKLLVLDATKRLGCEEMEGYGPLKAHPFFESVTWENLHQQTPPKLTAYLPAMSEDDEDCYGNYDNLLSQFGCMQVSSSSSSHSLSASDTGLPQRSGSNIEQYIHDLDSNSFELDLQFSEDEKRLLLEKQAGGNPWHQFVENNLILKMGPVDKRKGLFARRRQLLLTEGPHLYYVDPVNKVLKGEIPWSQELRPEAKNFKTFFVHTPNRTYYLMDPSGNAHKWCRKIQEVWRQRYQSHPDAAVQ
Description: as §1, §2

[12] = molecular target: T1, MARK4 catalytic domain; assay: Thermal shift assay; assay type: binding; details: sample 1 μM
Description: Recombinant MARK4 catalytic domain was diluted with PBS and divided into two aliquots, with one aliquot being treated with sample (1 μM) and the other aliquot with vehicle. After 20 min of incubation at room temperature, the respective mixtures were divided into smaller (40 μL) aliquots and heated individually at different temperatures for 3 min, followed by cooling at room temperature for 3 min. The appropriate temperatures were determined in preliminary CETSA experiments. The heated mixtures were centrifuged at 20,000 × g at 4°C for 20 min in order to separate the soluble fractions from precipitates. The supernatants were transferred to new microtubes and analyzed by HPLC.

[13] = molecular target: T1, MARK4 catalytic domain; assay: Kinase activity assay (ADP-Glo) using MARK4 as enzyme; assay type: biochemical; details: for IC50: MARK4 5 nM, 100 μM ATP, 5 μM MAP4, 30 min, duplicate, means ± SEM
Description: MARK4 catalytic domain sequence was subcloned into pET-28a vector. Protein expression in E. coli. BL21 (DE3) was induced by IPTG overnight at 16°C, and the cells were then pelleted by centrifugation at 4,000 rpm for 15 min and resuspended in 20 mL buffer (20 mM Tris-HCl, 150 mM NaCl, 25 mM imidazole pH 8.0). Proteins were purified by nickel-affinity chromatography followed by thrombin cleavage. The proteins were further purified by size-exclusion chromatography using a Superdex 75 column (GE Healthcare).
as §2

[14] = molecular target: MARK4; parameters: method as in Naz et al., 2015; details: ref Naz et al., 2015; read-out: Kd between BX-795 and MARK4; cited from earlier work

T1 sequence (Q96L34 59-310 limits assumed): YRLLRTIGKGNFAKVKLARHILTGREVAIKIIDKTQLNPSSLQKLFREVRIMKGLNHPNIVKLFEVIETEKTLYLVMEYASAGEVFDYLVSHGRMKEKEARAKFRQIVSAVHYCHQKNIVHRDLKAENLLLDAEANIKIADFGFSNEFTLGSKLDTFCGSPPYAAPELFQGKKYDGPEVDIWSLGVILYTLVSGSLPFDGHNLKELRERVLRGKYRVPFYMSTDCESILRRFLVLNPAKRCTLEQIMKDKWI
Sequence of Src (P12931 whole entry, species assumed): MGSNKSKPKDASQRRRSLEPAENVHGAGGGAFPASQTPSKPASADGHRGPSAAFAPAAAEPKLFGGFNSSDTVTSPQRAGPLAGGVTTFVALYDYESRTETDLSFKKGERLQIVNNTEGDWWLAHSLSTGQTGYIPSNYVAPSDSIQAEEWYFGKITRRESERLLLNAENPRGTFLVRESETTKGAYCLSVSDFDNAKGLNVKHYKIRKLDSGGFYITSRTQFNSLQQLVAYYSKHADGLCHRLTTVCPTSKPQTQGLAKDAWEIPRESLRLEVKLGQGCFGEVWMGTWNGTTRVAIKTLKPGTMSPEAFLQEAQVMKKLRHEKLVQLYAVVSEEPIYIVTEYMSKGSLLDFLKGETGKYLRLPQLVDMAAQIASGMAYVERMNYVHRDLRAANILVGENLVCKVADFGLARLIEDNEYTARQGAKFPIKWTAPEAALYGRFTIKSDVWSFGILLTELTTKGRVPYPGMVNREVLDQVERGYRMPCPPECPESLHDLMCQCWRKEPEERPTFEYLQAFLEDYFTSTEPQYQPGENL
Sequence of AKT1 (P31749 whole entry, species assumed, the tested form may be a part): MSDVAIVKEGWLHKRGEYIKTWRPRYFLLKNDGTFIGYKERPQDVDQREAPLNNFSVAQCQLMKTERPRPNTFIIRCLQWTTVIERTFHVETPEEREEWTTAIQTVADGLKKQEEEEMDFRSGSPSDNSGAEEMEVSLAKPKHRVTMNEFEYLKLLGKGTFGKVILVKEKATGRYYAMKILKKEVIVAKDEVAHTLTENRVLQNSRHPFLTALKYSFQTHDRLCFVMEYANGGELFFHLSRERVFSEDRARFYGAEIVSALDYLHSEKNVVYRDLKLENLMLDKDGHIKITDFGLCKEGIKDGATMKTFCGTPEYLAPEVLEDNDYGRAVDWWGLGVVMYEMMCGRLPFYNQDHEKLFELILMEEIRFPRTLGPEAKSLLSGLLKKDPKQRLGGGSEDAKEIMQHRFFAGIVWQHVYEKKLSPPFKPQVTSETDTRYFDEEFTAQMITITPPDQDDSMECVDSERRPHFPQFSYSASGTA

SMILES: COc1ccc2oc(=O)c(C(=O)c3ccccc3)cc2c1 [Compound 50, 3-benzoyl-6-methoxy-2H-chromen-2-one]
- concentrations at which cell viability of HEK-293T cells was suppressed [1]: > 50 µM
- IC50 [2]: 11.8 ± 0.336 µM
- effect of MARK4-knockdown on anti-proliferative activity ([3]; HepG2 cells transiently transfected with MARK4-knockdown vs control vectors): significantly attenuated
- inhibitory activity of paclitaxel in the presence of compound ([3]; HepG2 cells, varied paclitaxel concentrations with 2.5 μM compound 50): remarkably enhanced
- viability at 2.5 µM ([3]; Homo sapiens, HepG2 cells, 2.5 μM compound alone, read-out: cell viability upon treatment): > 80%
- IC50 ([3]; Homo sapiens, HepG2 cells, MTT): 11.2 µM
- level of MAP4 phosphorylation [4]: decreased
- apoptosis: cell numbers of early and late apoptotic cells [5]: obviously increased
- Kd [6]: 0.346 µM
- apoptosis, single agent ([7]; 2.5 μM alone): unable to trigger distinct apoptosis
- apoptosis: cell numbers of early and late apoptotic cells ([7]; 15 μM, 36 h): obviously increased
- apoptosis, combination with paclitaxel ([7]; compound 50 2.5 μM in combination with paclitaxel 2.5 μM): activated HCC apoptosis
- IC50 [8]: 19 ± 1.32 µM
- colony formation of HepG2 cells [9]: significantly suppressed
- viability at 2.5 µM ([10]; Homo sapiens, 2.5 μM compound alone, read-out: cell viability upon treatment): > 80%
- IC50 ([10]; Homo sapiens, MTT): 12.8 µM
- inhibitory activity of paclitaxel in the presence of compound ([10]; varied paclitaxel concentrations with 2.5 μM compound 50): remarkably enhanced
- IC50 [11]: 5.97 ± 0.289 µM
- temperature shift of MARK4 thermal stability (ΔT) [12]: 3.13 °C
- IC50 [13]: 1.3 ± 0.102 µM
- inhibition at 10 µM ([13]; at 10 μM): ~80%

SMILES: O=C(NCCCNc1nc(Nc2cccc(NC(=O)N3CCCC3)c2)ncc1I)c1cccs1 [BX-795, reference compound]
- IC50 [2]: 2.87 ± 0.269 µM
- IC50 [8]: 5.87 ± 0.405 µM
- Kd [14]: 6.46 µM
- IC50 [11]: 1.68 ± 0.192 µM
- IC50 [13]: 4.99 ± 0.812 µM
